Laboratory results published in PubChem BioAssay AID330 (DTP/NCI, 2004).
Values joined by “and” are separate entries in the source; they are usually repeats but may differ in a detail not shown here. Equal entries are not always repeated. Inconclusive results and toxic doses are left out. How the source made its calls: active means survival T/C of 150% or more; inactive means T/C below 125% in these data.

Test system: P388 leukemia ip, CD2F1 mice, survival T/C
Experiment: NCI In Vivo Anticancer Drug Screen. Data for tumor model P388 Leukemia (intraperitoneal) in CD2F1 (CDF1) mice
Conditions: endpoint: median survival time, higher = longer survival
Outline: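 Mice carrying the transplanted tumor received test compound or vehicle. Survival was recorded in each group, and the value is the treated-group measurement divided by that of the vehicle-treated control group.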

[1] = dose: 50.0 mg/kg/injection, schedule: Q01DX005 (ip), vehicle: saline
[2] = dose: 100.0 mg/kg/injection, schedule: Q01DX005 (ip), vehicle: saline
[3] = dose: 100.0 mg/kg/injection, schedule: Q04DX002 (ip), vehicle: Klucel (hydroxypropylcellulose) (HPC)
[4] = dose: 200.0 mg/kg/injection, schedule: Q04DX002 (ip), vehicle: Klucel (hydroxypropylcellulose) (HPC)
[5] = dose: 400.0 mg/kg/injection, schedule: Q04DX002 (ip), vehicle: Klucel (hydroxypropylcellulose) (HPC)
[6] = dose: 60.0 mg/kg/injection, schedule: Q01DX005 (ip), vehicle: saline with Tween-80
[7] = dose: 120.0 mg/kg/injection, schedule: Q01DX005 (ip), vehicle: saline with Tween-80
[8] = dose: 240.0 mg/kg/injection, schedule: Q01DX005 (ip), vehicle: saline with Tween-80
[9] = dose: 50.0 mg/kg/injection, schedule: Q01DX009 (ip), vehicle: saline with Tween-80
[10] = dose: 100.0 mg/kg/injection, schedule: Q01DX009 (ip), vehicle: saline with Tween-80
[11] = dose: 3.12 mg/kg/injection, schedule: Q01DX005 (ip), vehicle: Klucel (hydroxypropylcellulose) (HPC)
[12] = dose: 6.25 mg/kg/injection, schedule: Q01DX005 (ip), vehicle: Klucel (hydroxypropylcellulose) (HPC)
[13] = dose: 12.5 mg/kg/injection, schedule: Q01DX005 (ip), vehicle: Klucel (hydroxypropylcellulose) (HPC)
[14] = dose: 100.0 mg/kg/injection, schedule: Q01DX005 (ip), vehicle: saline with Tween-80
[15] = dose: 200.0 mg/kg/injection, schedule: Q01DX005 (ip), vehicle: saline with Tween-80
[16] = dose: 200.0 mg/kg/injection, schedule: Q01DX009 (ip), vehicle: saline with Tween-80
[17] = dose: 50.0 mg/kg/injection, schedule: Q01DX009 (ip), vehicle: saline
[18] = dose: 100.0 mg/kg/injection, schedule: Q01DX009 (ip), vehicle: saline
[19] = dose: 200.0 mg/kg/injection, schedule: Q01DX009 (ip), vehicle: saline

Measured: T/C

C[C@@H]1CC[C@]2(C)CC[C@]3(C)C(=CC[C@@H]4[C@@]5(C)CC[C@H](O)C(C)(C)[C@@H]5CC[C@]43C)[C@@H]2[C@H]1C(=O)O
inactive: dose: 0.5 mg/kg/injection, schedule: Q01DX005 (ip), vehicle: DMSO 99 % of control | dose: 1.0 mg/kg/injection, schedule: Q01DX005 (ip), vehicle: DMSO 101 % of control | dose: 2.0 mg/kg/injection, schedule: Q01DX005 (ip), vehicle: DMSO 100 % of control | dose: 4.0 mg/kg/injection, schedule: Q01DX005 (ip), vehicle: DMSO 100 % of control and 108 % of control | dose: 8.0 mg/kg/injection, schedule: Q01DX005 (ip), vehicle: DMSO 98 % of control

CCN(CC)CCCC(C)N=C(Nc1ccccc1)c1ccc(Cl)cc1 (centres undefined)
inactive: [1] 104 % of control | [2] 102 % of control

C/C(=C\c1cc2c(cc1Cl)OCO2)[N+](=O)[O-]
inactive: [3] 104 % of control | [4] 102 % of control | [5] 118 % of control

O=C(O)C1CCC[N-]1.[Cl][Pd][Cl] (centres undefined)
inactive: dose: 6.25 mg/kg/injection, schedule: Q01DX009 (ip), vehicle: water 105 % of control | dose: 12.5 mg/kg/injection, schedule: Q01DX009 (ip), vehicle: water 96 % of control | dose: 25.0 mg/kg/injection, schedule: Q01DX009 (ip), vehicle: water 100 % of control | dose: 50.0 mg/kg/injection, schedule: Q01DX009 (ip), vehicle: water 114 % of control | dose: 100.0 mg/kg/injection, schedule: Q01DX009 (ip), vehicle: water 93 % of control

O=C(O)/C=C/c1c[nH]c(=O)[nH]c1=O
inactive: [6] 107 % of control | [7] 100 % of control | [8] 89 % of control

COc1ccc2nc(NC(=O)C(=O)C(C)C(=O)c3ccc(Cl)cc3)sc2c1 (centres undefined)
inactive: [6] 108 % of control | [7] 98 % of control | [8] 105 % of control

CCCCc1ccc(C)c(O)c1
inactive: [9] 110 % of control | [10] 98 % of control

C#CC(C)C(C(C)=O)C(C)=O.[C-]#[O+].[C-]#[O+].[C-]#[O+].[C-]#[O+].[C-]#[O+].[C-]#[O+].[Co].[Co] (centres undefined)
inactive: [11] 104 % of control | [12] 94 % of control | [13] 111 % of control

CN=C(C)c1c(O)n(-c2ccccc2)[nH]c1=O
inactive: [3] 96 % of control | [4] 102 % of control | [5] 90 % of control

Cc1cccc(C2=NCCN2)c1C
inactive: dose: 5.0 mg/kg/injection, schedule: Q04DX003 (ip), vehicle: saline with Tween-80 100 % of control | dose: 10.0 mg/kg/injection, schedule: Q04DX003 (ip), vehicle: saline with Tween-80 100 % of control | dose: 20.0 mg/kg/injection, schedule: Q04DX003 (ip), vehicle: saline with Tween-80 100 % of control

O=c1nc(Cl)c2ccccc2c2ccccc12
inactive: dose: 100.0 mg/kg/injection, schedule: Q01DX001 (ip), vehicle: saline with Tween-80 96 % of control | [14] 96 % of control | dose: 200.0 mg/kg/injection, schedule: Q01DX001 (ip), vehicle: saline with Tween-80 97 % of control | [15] 97 % of control | dose: 400.0 mg/kg/injection, schedule: Q01DX001 (ip), vehicle: saline with Tween-80 87 % of control | dose: 400.0 mg/kg/injection, schedule: Q01DX005 (ip), vehicle: saline with Tween-80 87 % of control

C[Si](C)(C)Cn1ccc(=O)[nH]c1=O
inactive: dose: 60.0 mg/kg/injection, schedule: Q01DX005 (ip), vehicle: Klucel + Tween-80 94 % of control | dose: 120.0 mg/kg/injection, schedule: Q01DX005 (ip), vehicle: Klucel + Tween-80 92 % of control | dose: 240.0 mg/kg/injection, schedule: Q01DX005 (ip), vehicle: Klucel + Tween-80 98 % of control

OC(CCCCl)CC(O)(C(F)(F)F)C(F)(F)F (centres undefined)
inactive: [9] 110 % of control | [10] 110 % of control | [16] 110 % of control

Cc1ccc(S(=O)(=O)NC(=O)/N=C2\NC(=O)CS2)cc1
inactive: dose: 50.0 mg/kg/injection, schedule: Q01DX005 (ip), vehicle: saline with Tween-80 100 % of control | [14] 103 % of control | [15] 91 % of control

CCN(CC)c1nc(N(CC)CC)nc(N(CC)CC)n1
inactive: dose: 25.0 mg/kg/injection, schedule: Q01DX009 (ip), vehicle: saline with Tween-80 102 % of control | [9] 104 % of control | [10] 104 % of control | [16] 104 % of control

CC(=O)NC1C(Nc2ccc(S(=O)(=O)NC(C)=O)cc2)OC(CO)C(O)C1O (centres undefined)
inactive: [1] 100 % of control | [2] 97 % of control | dose: 200.0 mg/kg/injection, schedule: Q01DX005 (ip), vehicle: saline 97 % of control

O=c1c2cc3c(cc2c2cccc4ccn1c42)OCO3
inactive: dose: 4.5 mg/kg/injection, schedule: Q01DX009 (ip), vehicle: Klucel (hydroxypropylcellulose) (HPC) 105 % of control | dose: 9.0 mg/kg/injection, schedule: Q01DX009 (ip), vehicle: Klucel (hydroxypropylcellulose) (HPC) 115 % of control | dose: 18.0 mg/kg/injection, schedule: Q01DX009 (ip), vehicle: Klucel (hydroxypropylcellulose) (HPC) 107 % of control | dose: 36.0 mg/kg/injection, schedule: Q01DX009 (ip), vehicle: Klucel (hydroxypropylcellulose) (HPC) 104 % of control

O=C(CCl)N1c2ccccc2Sc2ccc3ccccc3c21
inactive: [17] 95 % of control | [18] 102 % of control | [19] 113 % of control

C=C1C(=O)O[C@H]2/C=C(/C)C3=CC(=O)[C@@](C)(C[C@@H](OC(=O)/C(C)=C\C)C12)O3 (some centres undefined)
inactive: dose: 1.56 mg/kg/injection, schedule: Q01DX005 (ip), vehicle: Klucel (hydroxypropylcellulose) (HPC) 102 % of control | [11] 105 % of control | [12] 105 % of control | [13] 89 % of control and 96 % of control

CCNC(=O)Oc1ccc[nH]c1=O
inactive: dose: 25.0 mg/kg/injection, schedule: Q01DX009 (sc), vehicle: water 100 % of control and 103 % of control | [17] 111 % of control and 114 % of control | dose: 50.0 mg/kg/injection, schedule: Q01DX009 (sc), vehicle: water 104 % of control and 109 % of control | [18] 122 % of control | dose: 100.0 mg/kg/injection, schedule: Q01DX009 (sc), vehicle: water 106 % of control and 109 % of control | [19] 118 % of control | dose: 200.0 mg/kg/injection, schedule: Q01DX009 (sc), vehicle: water 108 % of control and 118 % of control | dose: 400.0 mg/kg/injection, schedule: Q01DX009 (ip), vehicle: saline 119 % of control | dose: 400.0 mg/kg/injection, schedule: Q01DX009 (sc), vehicle: water 113 % of control

CC(C)=NNS(=O)(=O)c1ccc(C)cc1
inactive: dose: 12.5 mg/kg/injection, schedule: Q01DX009 (ip), vehicle: Klucel (hydroxypropylcellulose) (HPC) 101 % of control | dose: 25.0 mg/kg/injection, schedule: Q01DX009 (ip), vehicle: Klucel (hydroxypropylcellulose) (HPC) 93 % of control | dose: 50.0 mg/kg/injection, schedule: Q01DX009 (ip), vehicle: Klucel (hydroxypropylcellulose) (HPC) 95 % of control | dose: 100.0 mg/kg/injection, schedule: Q01DX009 (ip), vehicle: Klucel (hydroxypropylcellulose) (HPC) 97 % of control | dose: 200.0 mg/kg/injection, schedule: Q01DX009 (ip), vehicle: Klucel (hydroxypropylcellulose) (HPC) 88 % of control
